Measurements: patent publication US9409905B2, “Antibacterial compounds and methods for use” (PTC THERAPEUTICS, INC., priority 2011, dated 2016)
In brackets after ≈: the same amount, converted by molar mass.

Columns and labels:
[1] = system: Escherichia coli (E. coli) BAS849; test: Antibacterial activity, microbroth dilution MIC (Table 1); type: cell-based; conditions: microbroth dilution, super sensitive Gram-negative E. coli BAS849, read-out: MIC, BAS849
In short: (§1)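 Potency is reported as minimum inhibitory concentration in μg/mL, determined by broth microdilution as the lowest level of compound that stops growth visible to the eye.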

[2] = system: Staphylococcus aureus (S. aureus) 29213; test: as above; type: cell-based; conditions: microbroth dilution, Gram-positive S. aureus 29213, read-out: MIC, 29213
In short: as §1

E. coli ELZ4000 = test: Antibacterial activity, MIC, multi-drug resistant clinical isolate (Table 3); type: cell-based; conditions: Escherichia coli, ELZ4000, read-out: MIC ELZ4000
In short: (§2)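 Microbroth dilution. Endpoint: absence of macroscopically visible growth. Value = MIC, μg/mL.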

E. coli ELZ4251 = test: as above; type: cell-based; conditions: Escherichia coli
In short: as §2

K. pneumoniae MXX1232 = test: Antibacterial activity, MIC, resistant strain (Table 4); type: cell-based; conditions: Klebsiella pneumoniae, MXX1232; resistant K. pneumoniae MMX1232, multi-drug resistant clinical isolate; read-out: MIC, MMX1232
In short: (§3)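 MIC in μg/mL by microbroth dilution, scored as the lowest level that suppresses visible growth.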

A. baumannii MXX2240 = test: as above; type: cell-based; conditions: Acinetobacter baumannii, MXX2240; resistant A. baumannii MMX2240, multi-drug resistant clinical isolate; read-out: MIC, MMX2240
In short: as §3

[3] = system: Acinetobacter baumannii (A. baumannii) BAA747; test: Antibacterial activity, MIC (Table 4); type: cell-based; conditions: A. baumannii BAA747, read-out: MIC, BAA747
In short: as §3

[4] = system: Klebsiella pneumoniae (K. pneumoniae) 35657; test: Antibacterial activity, MIC (Table 4); type: cell-based; conditions: K. pneumoniae 35657, read-out: MIC, 35657
In short: as §3

[5] = system: Moraxella catarrhalis (M. catarrhalis) 25238; test: Antibacterial activity, MIC (Table 7); type: cell-based
In short: (§4)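 Broth microdilution; MIC (μg/mL) = lowest concentration with no macroscopically visible growth.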

[6] = system: Pseudomonas aeruginosa (P. aeruginosa) 27853; test: Antibacterial activity, MIC (Table 5); type: cell-based; conditions: P. aeruginosa 27853, read-out: MIC, 27853
In short: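 Compounds are serially diluted in broth and inoculated with the organism. Growth is then inspected macroscopically, and the lowest concentration showing none is taken as the MIC (μg/mL).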

[7] = system: Haemophilus influenzae (H. influenzae) 49247; test: Antibacterial activity, MIC (Table 6); type: cell-based
In short: as §4

E. coli LZ3111 = test: Antibacterial activity, MIC, quinolone resistant strain (Table 2); type: cell-based; conditions: Escherichia coli, LZ3111, read-out: MIC LZ3111
In short: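 Strain carries mutations conferring high-level quinolone resistance; tested by microbroth dilution, MIC recorded in μg/mL as lowest concentration preventing visible growth.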

E. coli 25922 = test: Antibacterial activity, microbroth dilution MIC (Table 1); type: cell-based, Escherichia coli; conditions: Escherichia coli; microbroth dilution; control Gram-negative E. coli 25922 strain; read-out: MIC, 25922
In short: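 Broth microdilution; endpoint = no macroscopic growth; value = lowest inhibiting concn, μg/mL.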

[8] = system: Neisseria meningitidis (N. meningitidis) 13090; test: Antibacterial activity, MIC (Table 8); type: cell-based
In short: as §4

Row | Structure (SMILES) | MIC [1] [µg/mL] | MIC [2] [µg/mL] | MIC (E. coli ELZ4000) [µg/mL] | MIC (E. coli ELZ4251) [µg/mL] | MIC (K. pneumoniae MXX1232) [µg/mL] | MIC (A. baumannii MXX2240) [µg/mL] | MIC [3] [µg/mL] | MIC [4] [µg/mL] | MIC [5] [µg/mL] | MIC [6] [µg/mL] | MIC [7] [µg/mL] | MIC (E. coli LZ3111) [µg/mL] | MIC (E. coli 25922) [µg/mL] | MIC [8] [µg/mL]
1 | CCc1c(-c2ccc3c(c2)cc(CN2CCC(N4CCCCC4)CC2)n3C)[nH]c(=O)c(C(=O)O)c1O [Cpd 251, 6-(2-(1,4′-bipiperidin-1′-ylmethyl)-1-methyl-1H-indol-5-yl)-5-ethyl-4-hydroxy-2-oxo-1,2-dihydropyridine-3-carboxylic acid] | < 1 | 3.5 to 12.5 (≈ 7.1 to 25.4 µM) | 12.5 to 150 (≈ 25.4 to 304 µM) | 12.5 to 150 (≈ 25.4 to 304 µM) | 12.5 to 150 (≈ 25.4 to 304 µM) | 12.5 to 150 (≈ 25.4 to 304 µM) | 3.5 to 12.5 (≈ 7.1 to 25.4 µM) | 1 to 3.5 (≈ 2.03 to 7.1 µM) | < 1 | 12.5 to 150 (≈ 25.4 to 304 µM) | 1 to 3.5 (≈ 2.03 to 7.1 µM) | 3.5 to 12.5 (≈ 7.1 to 25.4 µM) | 1 to 3.5 (≈ 2.03 to 7.1 µM) | < 1
2 | CCc1c(-c2ccc3c(c2)cc(CN2CCC(N)CC2)n3C)[nH]c(=O)c(C(=O)O)c1O [Cpd 252, 6-(2-((4-aminopiperidin-1-yl)methyl)-1-methyl-1H-indol-5-yl)-5-ethyl-4-hydroxy-2-oxo-1,2-dihydropyridine-3-carboxylic acid] | < 1 | 12.5 to 150 (≈ 29.4 to 353 µM) | 12.5 to 150 (≈ 29.4 to 353 µM) | 12.5 to 150 (≈ 29.4 to 353 µM) | 12.5 to 150 (≈ 29.4 to 353 µM) | 12.5 to 150 (≈ 29.4 to 353 µM) | 12.5 to 150 (≈ 29.4 to 353 µM) | 1 to 3.5 (≈ 2.36 to 8.24 µM) | 3.5 to 12.5 (≈ 8.24 to 29.4 µM) | 3.5 to 12.5 (≈ 8.24 to 29.4 µM) | 1 to 3.5 (≈ 2.36 to 8.24 µM) | 1 to 3.5 (≈ 2.36 to 8.24 µM) | 1 to 3.5 (≈ 2.36 to 8.24 µM) | 1 to 3.5 (≈ 2.36 to 8.24 µM)
3 | CCc1c(-c2ccc3c(c2)cc(CN2CCC[C@H](N)C2)n3C)[nH]c(=O)c(C(=O)O)c1O [Cpd 253, (S)-6-(2-((3-aminopiperidin-1-yl)methyl)-1-methyl-1H-indol-5-yl)-5-ethyl-4-hydroxy-2-oxo-1,2-dihydropyridine-3-carboxylic acid] | < 1 | 12.5 to 150 (≈ 29.4 to 353 µM) | 12.5 to 150 (≈ 29.4 to 353 µM) | 12.5 to 150 (≈ 29.4 to 353 µM) | 12.5 to 150 (≈ 29.4 to 353 µM) | 12.5 to 150 (≈ 29.4 to 353 µM) | 12.5 to 150 (≈ 29.4 to 353 µM) | 1 to 3.5 (≈ 2.36 to 8.24 µM) | 3.5 to 12.5 (≈ 8.24 to 29.4 µM) | 12.5 to 150 (≈ 29.4 to 353 µM) | 3.5 to 12.5 (≈ 8.24 to 29.4 µM) | 3.5 to 12.5 (≈ 8.24 to 29.4 µM) | 1 to 3.5 (≈ 2.36 to 8.24 µM) | 1 to 3.5 (≈ 2.36 to 8.24 µM)
4 | CCc1c(-c2ccc3c(c2)cc(CN2CCC(NC)CC2)n3C)[nH]c(=O)c(C(=O)O)c1O [Cpd 256, 5-ethyl-4-hydroxy-6-(1-methyl-2-((4-(methylamino)piperidin-1-yl)methyl)-1H-indol-5-yl)-2-oxo-1,2-dihydropyridine-3-carboxylic acid] | < 1 | 3.5 to 12.5 (≈ 7.98 to 28.5 µM) | 12.5 to 150 (≈ 28.5 to 342 µM) | 12.5 to 150 (≈ 28.5 to 342 µM) | 12.5 to 150 (≈ 28.5 to 342 µM) | 12.5 to 150 (≈ 28.5 to 342 µM) | 12.5 to 150 (≈ 28.5 to 342 µM) | 1 to 3.5 (≈ 2.28 to 7.98 µM) | 1 to 3.5 (≈ 2.28 to 7.98 µM) | 3.5 to 12.5 (≈ 7.98 to 28.5 µM) | 1 to 3.5 (≈ 2.28 to 7.98 µM) | 1 to 3.5 (≈ 2.28 to 7.98 µM) | 1 to 3.5 (≈ 2.28 to 7.98 µM) | 1 to 3.5 (≈ 2.28 to 7.98 µM)
5 | CCc1c(-c2ccc3c(c2)cc(CN2CCC[C@H](NC)C2)n3C)[nH]c(=O)c(C(=O)O)c1O [Cpd 257, (S)-5-ethyl-4-hydroxy-6-(1-methyl-2-((3-(methylamino)piperidin-1-yl)methyl)-1H-indol-5-yl)-2-oxo-1,2-dihydropyridine-3-carboxylic acid] | < 1 | 12.5 to 150 (≈ 28.5 to 342 µM) | 12.5 to 150 (≈ 28.5 to 342 µM) | 12.5 to 150 (≈ 28.5 to 342 µM) | 12.5 to 150 (≈ 28.5 to 342 µM) | 12.5 to 150 (≈ 28.5 to 342 µM) | 12.5 to 150 (≈ 28.5 to 342 µM) | 3.5 to 12.5 (≈ 7.98 to 28.5 µM) | 3.5 to 12.5 (≈ 7.98 to 28.5 µM) | 12.5 to 150 (≈ 28.5 to 342 µM) | 3.5 to 12.5 (≈ 7.98 to 28.5 µM) | 3.5 to 12.5 (≈ 7.98 to 28.5 µM) | 3.5 to 12.5 (≈ 7.98 to 28.5 µM) | 1 to 3.5 (≈ 2.28 to 7.98 µM)
